According to patent US9505762B2, “Purine derivatives as CB2 receptor agonists” (Hoffmann-La Roche Inc., priority 2013, dated 2016):

Key:
[1] = molecular target: human CB1 receptors (Homo sapiens (Human), UniProt P21554); test: functional cAMP assay, CB1; format: cell-based; details: CHO cells expressing human CB1
[2] = molecular target: human CB2 receptors (Homo sapiens (Human), UniProt P34972); test: functional cAMP assay, CB2; format: cell-based; details: CHO cells expressing human CB2
Chain of human CB2 receptors (P34972 whole entry): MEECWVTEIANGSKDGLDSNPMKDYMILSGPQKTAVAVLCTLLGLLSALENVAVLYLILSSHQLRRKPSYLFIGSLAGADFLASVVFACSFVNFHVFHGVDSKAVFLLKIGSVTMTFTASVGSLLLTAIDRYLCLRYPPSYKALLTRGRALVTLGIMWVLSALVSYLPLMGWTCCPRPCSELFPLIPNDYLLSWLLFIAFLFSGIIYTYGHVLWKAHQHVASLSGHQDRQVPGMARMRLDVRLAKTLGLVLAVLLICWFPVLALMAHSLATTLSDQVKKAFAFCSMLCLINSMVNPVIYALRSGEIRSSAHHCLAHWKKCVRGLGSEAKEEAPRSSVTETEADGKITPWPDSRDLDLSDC

Chain of human CB1 receptors (P21554 whole entry): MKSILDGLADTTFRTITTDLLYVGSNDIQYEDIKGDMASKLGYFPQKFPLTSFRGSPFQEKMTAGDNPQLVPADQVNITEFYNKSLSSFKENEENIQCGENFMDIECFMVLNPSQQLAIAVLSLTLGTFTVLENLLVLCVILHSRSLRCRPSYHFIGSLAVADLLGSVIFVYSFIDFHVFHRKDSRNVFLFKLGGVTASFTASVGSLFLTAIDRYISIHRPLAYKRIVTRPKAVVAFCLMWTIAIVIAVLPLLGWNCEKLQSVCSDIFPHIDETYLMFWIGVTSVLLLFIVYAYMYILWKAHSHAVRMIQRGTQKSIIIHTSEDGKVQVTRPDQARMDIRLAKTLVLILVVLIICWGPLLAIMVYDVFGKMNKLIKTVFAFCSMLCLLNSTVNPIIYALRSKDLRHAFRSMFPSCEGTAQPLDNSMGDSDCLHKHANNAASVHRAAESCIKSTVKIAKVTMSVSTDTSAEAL

Row | Compound | EC50 [1] | EC50 [2]
1 | CC(=O)N[C@H]1CCN(c2nc(C(C)(C)C)nc3c2ncn3Cc2ccccc2C(F)(F)F)C1 [Example 51, N—[(S)-1-[2-tert-butyl-9-[[2-(trifluoromethyl)phenyl]methyl]purin-6-yl]pyrrolidin-3-yl]acetamide] | > 10000 nM | 64.7 nM
2 | CC(C)(C)c1nc(N2CC[C@H](O)C2)c2ncn(Cc3nnnn3C3CC3)c2n1 [Example 139, (3S)-1-[2-tert-butyl-9-[(1-cyclopropyltetrazol-5-yl)methyl]purin-6-yl]pyrrolidin-3-ol] | > 10000 nM | 201 nM
3 | CC(C)(C)Nc1nc(N2CC[C@H](O)C2)c2ncn(Cc3ccccc3C(F)(F)F)c2n1 [Example 117, (3S)-1-[2-(tert-butylamino)-9-[[2-(trifluoromethyl)phenyl]methyl]purin-6-yl]pyrrolidin-3-ol] | > 10000 nM | 7.2 nM
4 | CC1(O)CCN(c2nc(NC(C)(C)C)nc3c2ncn3Cc2ccccc2Cl)C1 (stereo not shown) [Example 120, 1-[2-(tert-butylamino)-9-[(2-chlorophenyl)methyl]purin-6-yl]-3-methylpyrrolidin-3-ol] | > 10000 nM | 108 nM
5 | CC(C)(C)c1nc(N2CCC(O)C2)c2ncn(C3CCOC3)c2n1 (stereo not shown) [Example 46, 1-[2-tert-butyl-9-(oxolan-3-yl)purin-6-yl]pyrrolidin-3-ol] | > 10000 nM | 139 nM
6 | CC(C)(C)Nc1nc(N2CCC(F)(F)C2)c2ncn(Cc3ncccc3Cl)c2n1 [Example 112, N-tert-butyl-9-[(3-chloropyridin-2-yl)methyl]-6-(3,3-difluoropyrrolidin-1-yl)purin-2-amine] | > 10000 nM | 7.9 nM
7 | CC(C)(C)c1nc(N2CCC3(COC3)C2)c2ncn(Cc3ccccc3S(C)(=O)=O)c2n1 [Example 60, 7-[2-tert-butyl-9-[(2-methylsulfonylphenyl)methyl]purin-6-yl]-2-oxa-7-azaspiro[3.4]octane] | > 10000 nM | 175 nM
8 | CC(=O)N[C@H]1CCN(c2nc(C(C)(C)C)nc3c2ncn3Cc2ccccc2S(C)(=O)=O)C1 [Example 52, N—[(S)-1-[2-tert-butyl-9-[(2-methylsulfonylphenyl)methyl]purin-6-yl]pyrrolidin-3-yl]acetamide] | > 10000 nM | 229 nM
9 | CC1(O)CCN(c2nc(C(C)(C)C)nc3c2ncn3Cc2ccccc2C(F)(F)F)C1 (stereo not shown) [Example 67, 1-[2-tert-butyl-9-[[2-(trifluoromethyl)phenyl]methyl]purin-6-yl]-3-methylpyrrolidin-3-ol] | > 10000 nM | 9 nM
10 | CC(C)(C)c1nc(N2CC[C@H](O)C2)c2ncn(Cc3ccccc3Cl)c2n1 [Example 97, (3S)-1-[2-tert-butyl-9-[(2-chlorophenyl)methyl]purin-6-yl]pyrrolidin-3-ol] | > 10000 nM | 1.8 nM
11 | CC(C)(C)c1nc(N2CC(F)(F)C(F)(F)C2)c2ncn(Cc3ccccc3S(C)(=O)=O)c2n1 [Example 106, 2-tert-butyl-9-[(2-methylsulfonylphenyl)methyl]-6-(3,3,4,4-tetrafluoropyrrolidin-1-yl)purine] | > 10000 nM | 39.9 nM
12 | Cc1nonc1Cn1cnc2c(N3CCC[C@@H]3C#N)nc(C(C)(C)C)nc21 [Example 148, (2R)-1-[2-tert-butyl-9-[(4-methyl-1,2,5-oxadiazol-3-yl)methyl]purin-6-yl]pyrrolidine-2-carbonitrile] | > 10000 nM | 15.7 nM
13 | CC(C)(C)Nc1nc(N2CC[C@H](O)C2)c2ncn(Cc3ncccc3Cl)c2n1 [Example 118, (3S)-1-[2-(tert-butylamino)-9-[(3-chloropyridin-2-yl)methyl]purin-6-yl]pyrrolidin-3-ol] | > 10000 nM | 152 nM
14 | CC1(O)CCN(c2nc(C(C)(C)C)nc3c2ncn3Cc2n[nH]cc2C(F)(F)F)C1 (stereo not shown) [Example 85, 1-[2-tert-butyl-9-[[4-(trifluoromethyl)-1H-pyrazol-3-yl]methyl]purin-6-yl]-3-methylpyrrolidin-3-ol] | > 10000 nM | 22.1 nM
15 | Cc1ccc(Cn2cnc3c(N4CCC(O)C4)nc(C(C)(C)C)nc32)cc1 (stereo not shown) [Example 39, 1-[2-tert-butyl-9-[(4-methylphenyl)methyl]purin-6-yl]pyrrolidin-3-ol] | > 10000 nM | 16.9 nM
16 | CC(C)(C)COc1nc(N2CCC(C)(O)C2)c2ncn(Cc3ccccc3S(C)(=O)=O)c2n1 (stereo not shown) [Example 133, 1-[2-(2,2-dimethylpropoxy)-9-[(2-methylsulfonylphenyl)methyl]purin-6-yl]-3-methylpyrrolidin-3-ol] | > 10000 nM | 149 nM
17 | CC(C)(C)c1nc(N2CCC(O)C2)c2ncn(Cc3ccccc3S(C)(=O)=O)c2n1 (stereo not shown) [Example 34, 1-[2-tert-butyl-9-[(2-methylsulfonylphenyl)methyl]purin-6-yl]pyrrolidin-3-ol] | > 10000 nM | 9 nM
18 | CC(C)(C)c1nc(N2CCC3(COC3)C2)c2ncn(Cc3cccnc3Cl)c2n1 [Example 61, 7-[2-tert-butyl-9-[(2-chloropyridin-3-yl)methyl]purin-6-yl]-2-oxa-7-azaspiro[3.4]octane] | > 10000 nM | 29.6 nM
19 | Cc1noc(Cn2cnc3c(N4CCC(F)(F)C4)nc(OCC(C)(C)C)nc32)n1 [Example 128, 5-[[6-(3,3-difluoropyrrolidin-1-yl)-2-(2,2-dimethylpropoxy)purin-9-yl]methyl]-3-methyl-1,2,4-oxadiazole] | > 10000 nM | 109 nM
20 | CC(C)(C)Nc1nc(N2CCC(F)(F)C2)c2ncn(Cc3ccccc3C(F)(F)F)c2n1 [Example 108, N-tert-butyl-6-(3,3-difluoropyrrolidin-1-yl)-9-[[2-(trifluoromethyl)phenyl]methyl]purin-2-amine] | > 10000 nM | 6.7 nM
21 | Cc1noc(Cn2cnc3c(N4CC5(COC5)C4)nc(NC(C)(C)C)nc32)n1 [Example 141, N-tert-butyl-9-[(3-methyl-1,2,4-oxadiazol-5-yl)methyl]-6-(2-oxa-6-azaspiro[3.3]heptan-6-yl)purin-2-amine] | > 10000 nM | 40.9 nM
22 | CC(C)(C)c1nc(N2CCC3(COC3)C2)c2ncn(Cc3cccc(Cl)c3)c2n1 [Example 57, 7-[2-tert-butyl-9-[(3-chlorophenyl)methyl]purin-6-yl]-2-oxa-7-azaspiro[3.4]octane] | > 10000 nM | 466 nM
23 | CC(C)(C)c1nc(N2CCC(F)(F)C2)c2ncn(C3CCOC3)c2n1 (stereo not shown) [Example 12, 2-tert-butyl-6-(3,3-difluoropyrrolidin-1-yl)-9-(oxolan-3-yl)purine] | > 10000 nM | 3.1 nM
24 | Cc1nonc1Cn1cnc2c(N3CC[C@H](O)C3)nc(C(C)(C)C)nc21 [Example 96, (3S)-1-[2-tert-butyl-9-[(4-methyl-1,2,5-oxadiazol-3-yl)methyl]purin-6-yl]pyrrolidin-3-ol] | > 10000 nM | 14.8 nM
25 | CC(C)(C)Nc1nc(N2CCC(F)(F)C2)c2ncn(Cc3ccccc3S(C)(=O)=O)c2n1 [Example 114, N-tert-butyl-6-(3,3-difluoropyrrolidin-1-yl)-9-[(2-methylsulfonylphenyl)methyl]purin-2-amine] | > 10000 nM | 45.5 nM
26 | CC(C)(C)c1nc(N2CC[C@H](O)C2)c2ncn(Cc3ccccc3C(F)(F)F)c2n1 [Example 86, (3S)-1-[2-tert-butyl-9-[[2-(trifluoromethyl)phenyl]methyl]purin-6-yl]pyrrolidin-3-ol] | > 10000 nM | 1.1 nM
